For the series, the system named is Palmer Amaranth (Amaranthus palmeri). As to the kind of experiment: Toxicity assay (probit LC50), Palmer amaranth. Type of series: in vivo. An excerpt: Palmer amaranth seeds were obtained from the Department of Agronomy at Iowa State University. Individual seeds were sown for each pot (1.5″ wide×3″ deep) with approximately 7.5 g of soil for each plot. Five seeds/plot were sown into numerous plots. After one month of germination, germinated plants were counted in each plot and this number was used for the total number of plants challenged per plot in the toxicity assessment
The total number of plants were counted in each plot in 24×6 hexagonal small plot planter tray. The number of germinated seeds in each plot was enumerated after one month, and for each plot this number was recorded and used as the total for each plot. Differing concentrations of thymyloxyacetic acid was applied in 5% Triton-X 100 and 1:1 molar ratio potassium hydroxide:thymyloxyacetic acid to aid in the solubility of the compound in water. Ten mL of solution was applied to each plot, and the mortality of the plants was assessed at 3 days and 2 weeks post application (for some treatments). Mortality at these time points were enumerated out of the total plants germinated in each plot at the beginning of the assay. At both time points, the total number of dead plants and total number of plants at the beginning of the assay were recorded for each observation. A Probit model was used to calculate the LC50 values for each of the compounds explored in this assay. A formulation control (with no active ingredient) was screened against a number of plants and factored into the final probit model. This formulation control had little-to-no effect by itself.

The structures appear in SMILES notation.

Turning to `Cc1ccc(C(C)C)c(OCC(=O)O)c1` [thymyloxyacetic acid, 2-(2-isopropyl-5-methylphenoxy)acetic acid], the “LC50 Value” by setting is: (Palmer Amaranth (Table 6)) 1700 ppm; (Palmer Amaranth, 2-week post application, probit) 1350 ppm; (Palmer Amaranth, 3-day post application, probit) 1700 ppm. Moreover, the “Selective Toxicity Compared to Bluegrass” value (Palmer Amaranth compared to bluegrass) is reported as 2.06.

Source of the values: US12213479B2, “Monoterpenoid/phenylpropanoid-containing compounds and methods of their making and use as herbicides” (KITTRICH CORPORATION, priority 2016, dated 2025).
